Reference: PMC2617778, “Discovery of a Novel Activator of KCNQ1-KCNE1 K^+ Channel Complexes” (PLoS ONE, 2009)

Columns and labels:
Type in all cases: cell-based
[1] = target: T1, Q2/Q3 (KCNQ2/3) (Homo sapiens, UniProt O43525+O43526); assay: two-electrode voltage clamp, Xenopus oocytes; delta gmax on washout, hyperbola fit; settings: read-out: Phenylboronic Acid (PBA) / EC50
T1 construct: heterotetramer; equal mRNA amounts of both subunits in Xenopus laevis oocytes
Excerpt: two-electrode voltage clamp, Xenopus oocytes; delta gmax on washout, hyperbola fit on Q2/Q3 (KCNQ2/3)

[2] = target: T2, KCNQ4 (Q4) (Homo sapiens, UniProt P56696); assay: as above; settings: read-out: Phenylboronic Acid (PBA) / EC50
T2 construct: homotetramer expressed in Xenopus laevis oocytes
T2 sequence (P56696 1-695): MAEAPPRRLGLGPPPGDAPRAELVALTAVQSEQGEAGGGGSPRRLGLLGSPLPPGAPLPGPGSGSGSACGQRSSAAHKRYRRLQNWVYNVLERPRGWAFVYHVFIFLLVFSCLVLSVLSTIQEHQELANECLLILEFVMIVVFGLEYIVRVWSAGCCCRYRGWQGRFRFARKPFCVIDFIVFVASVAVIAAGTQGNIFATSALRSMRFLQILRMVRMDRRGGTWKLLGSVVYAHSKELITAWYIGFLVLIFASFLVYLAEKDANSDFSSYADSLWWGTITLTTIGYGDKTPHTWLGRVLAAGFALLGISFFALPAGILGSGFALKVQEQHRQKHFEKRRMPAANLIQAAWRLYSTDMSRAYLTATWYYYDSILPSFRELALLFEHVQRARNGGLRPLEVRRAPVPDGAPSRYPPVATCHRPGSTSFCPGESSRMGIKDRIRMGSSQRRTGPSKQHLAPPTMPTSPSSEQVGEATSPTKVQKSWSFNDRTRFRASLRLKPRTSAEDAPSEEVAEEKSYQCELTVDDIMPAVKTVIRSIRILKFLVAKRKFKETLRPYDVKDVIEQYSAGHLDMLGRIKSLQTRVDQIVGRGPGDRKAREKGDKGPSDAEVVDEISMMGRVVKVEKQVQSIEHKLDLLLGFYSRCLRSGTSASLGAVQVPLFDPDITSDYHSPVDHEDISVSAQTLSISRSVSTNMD
Excerpt: two-electrode voltage clamp, Xenopus oocytes; delta gmax on washout, hyperbola fit on KCNQ4 (Q4)

[3] = target: T3, Q1/E1 (KCNQ1/KCNE1 complex) (Homo sapiens, UniProt P51787); assay: two-electrode voltage clamp, Xenopus oocytes; settings: inhibitor, ND96, pH 7.6, +40 mV, 2 s pulse
T3 construct: with Potassium voltage-gated channel subfamily E member 1

[4] = target: T4, Q1/E3 (KCNQ1/KCNE3 complex) (Homo sapiens, UniProt P51787); assay: two-electrode voltage clamp, Xenopus oocytes; tail-current Boltzmann fit; settings: activator (raises current, no V1/2 shift); 10 mM; KD50 (50 mM K+), pH 7.6
T4 construct: with Potassium voltage-gated channel subfamily E member 3
T4 sequence (P51787 1-676): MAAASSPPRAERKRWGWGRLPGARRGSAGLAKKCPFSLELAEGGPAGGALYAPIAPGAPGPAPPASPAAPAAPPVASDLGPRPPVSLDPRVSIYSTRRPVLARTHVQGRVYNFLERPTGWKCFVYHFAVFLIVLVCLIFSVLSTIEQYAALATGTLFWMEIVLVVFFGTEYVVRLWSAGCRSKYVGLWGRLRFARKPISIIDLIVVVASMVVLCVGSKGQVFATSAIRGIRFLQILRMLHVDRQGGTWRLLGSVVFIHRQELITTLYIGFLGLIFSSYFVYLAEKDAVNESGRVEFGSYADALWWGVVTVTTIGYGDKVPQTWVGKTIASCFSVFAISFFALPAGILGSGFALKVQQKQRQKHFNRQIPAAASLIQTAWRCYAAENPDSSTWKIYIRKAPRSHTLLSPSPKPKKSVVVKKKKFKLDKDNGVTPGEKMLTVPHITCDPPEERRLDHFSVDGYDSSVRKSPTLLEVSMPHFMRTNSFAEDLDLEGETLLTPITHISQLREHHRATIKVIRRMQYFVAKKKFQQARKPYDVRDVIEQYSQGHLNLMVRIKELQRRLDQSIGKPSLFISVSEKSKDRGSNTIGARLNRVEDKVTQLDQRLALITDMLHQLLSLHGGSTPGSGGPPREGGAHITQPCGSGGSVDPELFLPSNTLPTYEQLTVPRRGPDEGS
T4 sequence (Q9Y6H6 1-103 partner): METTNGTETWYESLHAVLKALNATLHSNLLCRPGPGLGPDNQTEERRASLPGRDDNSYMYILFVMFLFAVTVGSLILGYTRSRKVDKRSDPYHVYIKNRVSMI
Excerpt: two-electrode voltage clamp, Xenopus oocytes; tail-current Boltzmann fit on Q1/E3 (KCNQ1/KCNE3 complex)

[5] = target: T1, Q2/Q3 (KCNQ2/3); assay: as above; settings: activator; 10 mM; ND96, pH 7.6
Excerpt: two-electrode voltage clamp, Xenopus oocytes; tail-current Boltzmann fit on Q2/Q3 (KCNQ2/3)

[6] = target: T3, Q1/E1 (KCNQ1/KCNE1 complex); assay: as above; settings: reversible activator; 10 mM; ND96, pH 7.6
Excerpt: two-electrode voltage clamp, Xenopus oocytes; tail-current Boltzmann fit on Q1/E1 (KCNQ1/KCNE1 complex)

T1 sequence (O43526 whole entry): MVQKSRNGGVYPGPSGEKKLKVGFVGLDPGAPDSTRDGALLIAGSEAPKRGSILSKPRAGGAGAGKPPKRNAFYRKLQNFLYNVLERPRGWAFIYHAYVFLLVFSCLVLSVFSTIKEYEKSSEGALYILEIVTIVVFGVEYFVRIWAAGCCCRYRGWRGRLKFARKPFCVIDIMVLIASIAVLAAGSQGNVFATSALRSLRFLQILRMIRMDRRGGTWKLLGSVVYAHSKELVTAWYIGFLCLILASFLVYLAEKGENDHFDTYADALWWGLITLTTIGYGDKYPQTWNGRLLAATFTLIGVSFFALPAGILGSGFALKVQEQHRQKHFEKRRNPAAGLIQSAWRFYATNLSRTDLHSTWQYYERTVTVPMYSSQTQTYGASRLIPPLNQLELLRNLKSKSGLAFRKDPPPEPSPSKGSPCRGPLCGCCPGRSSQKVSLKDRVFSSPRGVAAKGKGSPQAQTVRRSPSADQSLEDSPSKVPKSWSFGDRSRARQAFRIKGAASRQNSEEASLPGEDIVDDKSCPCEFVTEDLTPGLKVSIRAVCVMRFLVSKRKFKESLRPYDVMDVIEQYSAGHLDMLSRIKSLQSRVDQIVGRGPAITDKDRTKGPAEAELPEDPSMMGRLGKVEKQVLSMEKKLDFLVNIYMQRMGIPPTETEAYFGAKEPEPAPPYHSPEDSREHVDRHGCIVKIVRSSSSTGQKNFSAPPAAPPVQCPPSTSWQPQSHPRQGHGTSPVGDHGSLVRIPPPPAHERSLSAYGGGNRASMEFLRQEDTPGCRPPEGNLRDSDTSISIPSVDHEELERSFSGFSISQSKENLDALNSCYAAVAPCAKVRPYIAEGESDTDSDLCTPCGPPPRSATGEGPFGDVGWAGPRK
T1 sequence (O43525 whole entry): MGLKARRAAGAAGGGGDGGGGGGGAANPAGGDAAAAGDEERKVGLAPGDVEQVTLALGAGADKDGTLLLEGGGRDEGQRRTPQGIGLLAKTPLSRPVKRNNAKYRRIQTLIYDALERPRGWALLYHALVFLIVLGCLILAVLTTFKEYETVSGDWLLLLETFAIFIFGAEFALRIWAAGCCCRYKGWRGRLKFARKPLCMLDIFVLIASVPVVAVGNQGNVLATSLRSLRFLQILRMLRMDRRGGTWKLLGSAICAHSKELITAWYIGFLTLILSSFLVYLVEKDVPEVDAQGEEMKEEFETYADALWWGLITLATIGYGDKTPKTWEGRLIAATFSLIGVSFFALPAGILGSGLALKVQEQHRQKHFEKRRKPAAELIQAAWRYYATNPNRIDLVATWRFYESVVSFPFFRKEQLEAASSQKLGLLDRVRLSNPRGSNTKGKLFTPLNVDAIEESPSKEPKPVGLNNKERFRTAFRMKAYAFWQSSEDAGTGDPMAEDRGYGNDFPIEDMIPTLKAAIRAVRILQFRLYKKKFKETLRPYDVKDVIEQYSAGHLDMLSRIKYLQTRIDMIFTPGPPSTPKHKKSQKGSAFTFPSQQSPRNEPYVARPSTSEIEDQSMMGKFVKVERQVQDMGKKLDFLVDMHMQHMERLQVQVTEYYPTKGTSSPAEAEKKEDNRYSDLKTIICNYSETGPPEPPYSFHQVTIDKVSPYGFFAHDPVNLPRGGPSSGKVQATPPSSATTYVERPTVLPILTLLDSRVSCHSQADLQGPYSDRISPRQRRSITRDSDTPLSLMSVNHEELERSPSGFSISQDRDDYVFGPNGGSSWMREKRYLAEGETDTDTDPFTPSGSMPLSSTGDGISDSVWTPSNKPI

Work on `OB(O)c1ccccc1` [PBA, phenylboronic acid] yielded an EC50 [1] of 3.7 ± 1.4 mM and an EC50 [2] greater than 10 mM.

With `O=C(O)c1ccccc1` [benzoic acid] the “reversible inhibition at 10 mM” value [3] was “Perfusion of benzoic acid reversibly inhibited Q1/E1”.

In the case of `OCc1ccccc1` [benzyl alcohol], the “Phenylboronic Acid (PBA) / Δ V1/2 (mV)” value [4] is reported as 2.7±4.9 mV, the “Phenylboronic Acid (PBA) / Δ V1/2 (mV)” value [5] is reported as −5.9±2.9 mV and the “Phenylboronic Acid (PBA) / Δ V1/2 (mV)” value [6] is reported as −4.4±2.4 mV.
